Test results: patent publication US10239873B2, “7-azaindole or 4,7-diazaindole derivatives as IKKϵ epsilon and TBK1 inhibitor and pharmaceutical composition comprising same” (GREEN CROSS CORPORATION, priority 2015, dated 2019)

What was measured:
TBK1 = target: T1, TBK1 (Homo sapiens, UniProt Q9UHD2); test: ADP-Glo Kinase Assay, inhibition activity on TBK1; assay type: biochemical
T1 construct: purchased Promega (Invitrogen is also named in the same bracket) V4158; PR8031B; V3991 (not assigned to the two kinases)
T1 sequence (Q9UHD2 1-729): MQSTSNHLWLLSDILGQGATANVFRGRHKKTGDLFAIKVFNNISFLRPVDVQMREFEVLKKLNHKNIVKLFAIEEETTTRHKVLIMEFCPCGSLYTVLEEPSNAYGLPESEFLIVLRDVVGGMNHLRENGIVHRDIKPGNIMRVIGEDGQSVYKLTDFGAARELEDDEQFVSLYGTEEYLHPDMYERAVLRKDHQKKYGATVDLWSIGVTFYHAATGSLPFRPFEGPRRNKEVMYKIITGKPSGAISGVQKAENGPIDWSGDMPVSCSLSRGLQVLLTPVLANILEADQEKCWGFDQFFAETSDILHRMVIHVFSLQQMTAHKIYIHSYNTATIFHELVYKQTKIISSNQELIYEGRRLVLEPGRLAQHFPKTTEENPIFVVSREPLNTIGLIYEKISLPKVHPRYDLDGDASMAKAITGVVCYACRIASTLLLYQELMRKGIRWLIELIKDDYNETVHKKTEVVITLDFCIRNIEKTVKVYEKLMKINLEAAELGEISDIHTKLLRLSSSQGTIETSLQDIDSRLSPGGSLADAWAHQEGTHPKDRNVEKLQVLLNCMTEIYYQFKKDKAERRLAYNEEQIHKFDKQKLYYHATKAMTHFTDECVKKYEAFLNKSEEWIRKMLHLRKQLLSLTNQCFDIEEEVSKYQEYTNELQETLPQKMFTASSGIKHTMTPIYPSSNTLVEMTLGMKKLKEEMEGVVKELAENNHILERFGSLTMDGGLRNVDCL
Outline: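 In 40 mM Tris pH 7.5 with 20 mM MgCl2 and 0.1 mg/mL BSA, each enzyme (IKKε or TBK1 kinase system) was run according to the manufacturer's protocol. ADP formed was detected by ADP-Glo luminescence.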

IKKε = target: T2, IKKε (Homo sapiens, UniProt Q14164); test: ADP-Glo Kinase Assay, inhibition activity on IKKε; assay type: biochemical
T2 construct: purchased Promega and/or Invitrogen V4158; PR8031B; V3991 (not assigned to the two kinases)
T2 sequence (Q14164 1-716): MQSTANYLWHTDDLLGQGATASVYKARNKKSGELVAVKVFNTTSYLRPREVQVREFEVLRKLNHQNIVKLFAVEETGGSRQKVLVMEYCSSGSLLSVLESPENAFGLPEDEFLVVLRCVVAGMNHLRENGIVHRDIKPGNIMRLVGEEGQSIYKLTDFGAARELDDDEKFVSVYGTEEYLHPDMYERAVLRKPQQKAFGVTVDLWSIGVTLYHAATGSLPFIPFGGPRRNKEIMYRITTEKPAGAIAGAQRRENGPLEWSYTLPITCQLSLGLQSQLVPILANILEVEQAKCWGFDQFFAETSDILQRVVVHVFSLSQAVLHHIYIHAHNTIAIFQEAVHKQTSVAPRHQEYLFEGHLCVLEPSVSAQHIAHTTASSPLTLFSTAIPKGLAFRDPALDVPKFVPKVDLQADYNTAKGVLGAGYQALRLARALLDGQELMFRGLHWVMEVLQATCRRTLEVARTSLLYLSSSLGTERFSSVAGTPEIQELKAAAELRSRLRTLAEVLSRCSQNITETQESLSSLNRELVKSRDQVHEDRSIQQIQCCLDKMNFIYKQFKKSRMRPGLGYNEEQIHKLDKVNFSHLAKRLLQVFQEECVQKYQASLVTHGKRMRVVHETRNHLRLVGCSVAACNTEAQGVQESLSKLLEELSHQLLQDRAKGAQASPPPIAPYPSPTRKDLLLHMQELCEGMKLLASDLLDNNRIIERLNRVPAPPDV
Method: Inhibition activities on IKKϵ and TBK1 were evaluated using the compounds of Examples 1 to 250.
The inhibition activities on IKKϵ and TBK1 were measured by a luminometer, IKKϵ/TBK1 Kinase Enzyme System (Promega, Ca# V4158; Invitrogen, PR8031B, Promega, Ca# V3991) and ADP-Glo Kinase Assay using ADP-Glo™ Kinase Analysis Kit (Promega, Ca# V9101) and a kinase reaction buffer [40 mM Tris(pH 7.5), 20 mM MgCl2, 0.1 mg/mL BSA] in accordance with the manufacturer's protocol.

Row | Structure (SMILES) | IC50 (TBK1) | IC50 (IKKε)
1 | CC(C)NC(=O)N1CC=C(c2c[nH]c3ncc(-c4cc(CN5CCOCC5)ccc4F)cc23)CC1 [Example 21, 4-(5-(2-Fluoro-5-(morpholinomethyl)phenyl)-1H-pyrrolo[2,3-b]pyridin-3-yl)-N-isopropyl-3,6-dihydropyridine-1(2H)-carboxamide] | 71 nM | 160 nM
2 | CCN1CCN(Cc2ccc(-c3cnc4[nH]cc(C5=CCN(C(=O)NC(C)C)CC5)c4c3)cc2)CC1 [Example 22, 4-(5-(4-((4-Ethylpiperazin-1-yl)methyl)phenyl)-1H-pyrrolo[2,3-b]pyridin-3-yl)-N-isopropyl-3,6-dihydropyridine-1(2H)-carboxamide] | 10 nM | 20 nM
3 | CC(C)NC(=O)N1CC=C(c2c[nH]c3ncc(-c4ccc(CN5CCN(C6CC6)CC5)cc4)cc23)CC1 [Example 23, 4-(5-(4-((4-Cyclopropylpiperazin-1-yl)methyl)phenyl)-1H-pyrrolo[2,3-b]pyridin-3-yl)-N-isopropyl-3,6-dihydropyridine-1(2H)-carboxamide] | 5.7 nM | 6.6 nM
4 | CCN1CCN(Cc2cccc(-c3cnc4[nH]cc(C5=CCN(C(=O)NC(C)C)CC5)c4c3)c2)CC1 [Example 24, 4-(5-(3-((4-Ethylpiperazin-1-yl)methyl)phenyl)-1H-pyrrolo[2,3-b]pyridin-3-yl)-N-isopropyl-3,6-dihydropyridine-1(2H)-carboxamide] | 12 nM | 41 nM
5 | CC(C)NC(=O)N1CC=C(c2c[nH]c3ncc(-c4ccc(CN5CCN(C)CC5)nc4)cc23)CC1 [Example 25, N-isopropyl-4-(5-(6-((4-methylpiperazin-1-yl)methyl)pyridin-3-yl)-1H-pyrrolo[2,3-b]pyridin-3-yl)-3,6-dihydropyridine-1(2H)-carboxamide] | 16 nM | 51 nM
6 | CCN1CCN(Cc2ccc(-c3cnc4[nH]cc(C5=CCN(C(=O)NC(C)C)CC5)c4c3)s2)CC1 [Example 26, 4-(5-(5-((4-Ethylpiperazin-1-yl)methyl)thiophen-2-yl)-1H-pyrrolo[2,3-b]pyridin-3-yl)-N-isopropyl-3,6-dihydropyridine-1(2H)-carboxamide] | 7.7 nM | 25 nM
7 | CC(C)NC(=O)N1CC=C(c2c[nH]c3ncc(-c4ccc(CN5CCCC5)o4)cc23)CC1 [Example 27, N-isopropyl-4-(5-(5-(pyrrolidin-1-ylmethyl)furan-2-yl)-1H-pyrrolo[2,3-b]pyridin-3-yl)-5,6-dihydropyridine-1(2H)-carboxamide] | 570 nM | 1980 nM
8 | CC(C)NC(=O)N1CC=C(c2c[nH]c3ncc(-c4ccc(CN5CCCC5)s4)cc23)CC1 [Example 28, N-isopropyl-4-(5-(5-(pyrrolidin-1-ylmethyl)thiophen-2-yl)-1H-pyrrolo[2,3-b]pyridin-3-yl)-5,6-dihydropyridine-1(2H)-carboxamide] | 18 nM | 58 nM
9 | CC(C)NC(=O)N1CC=C(c2c[nH]c3ncc(-c4cccc(CN5CCOCC5)c4)cc23)CC1 [Example 29, N-isopropyl-4-(5-(3-(morpholinomethyl)phenyl)-1H-pyrrolo[2,3-b]pyridin-3-yl)-5,6-dihydropyridine-1(2H)-carboxamide] | 16 nM | 29 nM
10 | CC(C)NC(=O)N1CC=C(c2c[nH]c3ncc(-c4ccc(CN5CCOCC5)cc4)cc23)CC1 [Example 30, N-isopropyl-4-(5-(4-(morpholinomethyl)phenyl)-1H-pyrrolo[2,3-b]pyridin-3-yl)-5,6-dihydropyridine-1(2H)-carboxamide] | 4.5 nM | 8.8 nM
11 | CC(C)NC(=O)N1CC=C(c2c[nH]c3ncc(-c4cccc(C(=O)N5CCN(C)CC5)c4)cc23)CC1 [Example 31, N-isopropyl-4-(5-(3-(4-methylpiperazine-1-carbonyl)phenyl)-1H-pyrrolo[2,3-b]pyridin-3-yl)-5,6-dihydropyridine-1(2H)-carboxamide] | 15 nM | 46 nM
12 | CC(C)NC(=O)N1CC=C(c2c[nH]c3ncc(-c4ccc(C(=O)N5CCN(C)CC5)cc4)cc23)CC1 [Example 32, N-isopropyl-4-(5-(4-(4-methylpiperazine-1-carbonyl)phenyl)-1H-pyrrolo[2,3-b]pyridin-3-yl)-5,6-dihydropyridine-1(2H)-carboxamide] | 7 nM | 13 nM
13 | CC(C)NC(=O)N1CC=C(c2c[nH]c3ncc(-c4ccc(CN5CCN(C)CC5)s4)cc23)CC1 [Example 33, N-isopropyl-4-(5-(5-((4-methylpiperazin-1-yl)methyl)thiophen-2-yl)-1H-pyrrolo[2,3-b]pyridin-3-yl)-5,6-dihydropyridine-1(2H)-carboxamide] | 1.1 nM | 6.9 nM
14 | CC(C)NC(=O)N1CC=C(c2c[nH]c3ncc(-c4ccc(CN5CCN(C)CC5)o4)cc23)CC1 [Example 35, N-isopropyl-4-(5-(5-((4-methylpiperazin-1-yl)methyl)furan-2-yl)-1H-pyrrolo[2,3-b]pyridin-3-yl)-5,6-dihydropyridine-1(2H)-carboxamide] | 18 nM | 110 nM
15 | CC(C)NC(=O)N1CC=C(c2c[nH]c3ncc(-c4ccc(NC5CCOCC5)cc4)cc23)CC1 [Example 37, N-isopropyl-4-(5-(4-((tetrahydro-2H-pyran-4-yl)amino)phenyl)-1H-pyrrolo[2,3-b]pyridin-3-yl)-3,6-dihydropyridine-1(2H)-carboxamide] | 10 nM | 13 nM
16 | CC(C)NC(=O)N1CC=C(c2c[nH]c3ncc(-c4ccc(OC5CCOCC5)cc4)cc23)CC1 [Example 38, N-isopropyl-4-(5-(4-((tetrahydro-2H-pyran-4-yl)oxy)phenyl)-1H-pyrrolo[2,3-b]pyridin-3-yl)-3,6-dihydropyridine-1(2H)-carboxamide] | 29 nM | 21 nM
17 | CC(C)NC(=O)N1CC=C(c2c[nH]c3ncc(-c4ccc(N)c5c4CNC5=O)cc23)CC1 [Example 39, 4-(5-(7-Amino-1-oxoisoindolidin-4-yl)-1H-pyrrolo[2,3-b]pyridin-3-yl)-N-isopropyl-3,6-dihydropyridine-1(2H)-carboxamide] | 35 nM | 35 nM
18 | CCC(CC)NC(=O)N1CC=C(c2c[nH]c3ncc(-c4ccc(CN5CCOCC5)s4)cc23)CC1 [Example 40, 4-(5-(5-(Morpholinomethyl)thiophen-2-yl)-1H-pyrrolo[2,3-b]pyridin-3-yl)-N-(pentan-3-yl)-3,6-dihydropyridine-1(2H)-carboxamide] | 74 nM | 170 nM
19 | CCC(CC)NC(=O)N1CC=C(c2c[nH]c3ncc(-c4ccc(CN5CCN(C)CC5)s4)cc23)CC1 [Example 41, 4-(5-(5-((4-Methylpiperazin-1-yl)methyl)thiophen-2-yl)-1H-pyrrolo[2,3-b]pyridin-3-yl)-N-(pentan-3-yl)-3,6-dihydropyridine-1(2H)-carboxamide] | 47 nM | 220 nM
20 | CCC(C)NC(=O)N1CC=C(c2c[nH]c3ncc(-c4ccc(CN5CCN(C)CC5)s4)cc23)CC1 (stereo not shown) [Example 42, N-(sec-butyl)-4-(5-(5-((4-methylpiperazin-1-yl)methyl)thiophen-2-yl)-1H-pyrrolo[2,3-b]pyridin-3-yl)-5,6-dihydropyridine-1(2H)-carboxamide] | 1.9 nM | 62 nM
